Experimental data reported in patent publication US20020115884A1, “Process for producing a hydrogenation product of an aromatic carboxylic acid” (priority 2000, published 2002).

Experiment: Solubility in water
Type: physicochemical

SMILES	Solubility in water (Temperature 150° C.)	Solubility in water (Temperature 200° C.)
O=C(O)c1ccc(-c2ccc(C(=O)O)cc2)cc1 [4,4′-biphenyldicarboxylic acid]	0.01 g/100 g-water	0.04 g/100 g-water
O=C(O)c1ccc2cc(C(=O)O)ccc2c1 [2,6-naphthalenedicarboxylic acid]	0.03 g/100 g-water	0.21 g/100 g-water
O=C(O)c1ccc(C(=O)O)cc1 [Terephthalic acid]	0.25 g/100 g-water	1.7 g/100 g-water
O=C(O)c1cccc(C(=O)O)c1 [Isophthalic acid]	2.7 g/100 g-water	24.2 g/100 g-water
